Laboratory results published in patent publication US9365621B2, “Method for preventing neoplastic transformation by inhibition of retinoblastoma protein inactivation” (The Regents of the University of California, priority 2012, dated 2016).
No end group written: not given here.

Target: T1, human Rb construct (residues 53-787) binding Human E2F1 transactivation domain (Homo sapiens, UniProt P06400, DEL245-267/DEL582-642/S780A)
T1 construct: a human Rb construct (residues 53-787, delta245-267, delta582-642, S780A); made in house; host or cells: E. coli
T1 sequence (P06400 with tags, fused parts or gaps DEL245-267/DEL582-642/S780A): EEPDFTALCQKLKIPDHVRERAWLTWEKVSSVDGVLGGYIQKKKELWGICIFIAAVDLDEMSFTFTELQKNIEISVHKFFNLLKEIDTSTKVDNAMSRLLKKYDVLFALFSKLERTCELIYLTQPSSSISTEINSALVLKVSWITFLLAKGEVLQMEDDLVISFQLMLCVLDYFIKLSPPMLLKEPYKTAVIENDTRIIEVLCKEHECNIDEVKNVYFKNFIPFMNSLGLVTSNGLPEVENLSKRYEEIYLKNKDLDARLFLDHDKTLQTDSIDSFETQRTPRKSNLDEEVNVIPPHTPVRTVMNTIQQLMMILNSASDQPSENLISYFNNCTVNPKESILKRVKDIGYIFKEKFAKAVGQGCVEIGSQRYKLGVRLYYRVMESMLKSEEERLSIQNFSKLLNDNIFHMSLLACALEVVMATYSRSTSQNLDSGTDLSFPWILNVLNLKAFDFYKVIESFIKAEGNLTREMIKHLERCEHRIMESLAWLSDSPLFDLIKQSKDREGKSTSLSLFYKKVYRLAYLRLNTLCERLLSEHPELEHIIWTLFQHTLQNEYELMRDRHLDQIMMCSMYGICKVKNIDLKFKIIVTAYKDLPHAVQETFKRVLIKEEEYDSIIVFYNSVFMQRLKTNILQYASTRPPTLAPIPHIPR
Test: Isothermal titration calorimetry of E2F binding to Rb (Rb activity)
Conditions: in vitro, phosphorylated Rb
Excerpt: The inventors have developed an assay for measuring the degree of binding between Rb and E2F. Rb inactivation corresponds to E2F binding inhibition. If you can prevent E2F binding to Rb, then you inactivate Rb, its tumor suppressing action decreases and the cell cycle continues from G1 to S and unregulated cell division occurs. Inactivation occurs upon Rb phosphorylation by Cdk. The inventors have discovered that in the presence of ‘LxCxE’ peptide, E2F inhibition is prevented upon phosphorylation.
The […] peptide was made synthetically using standard peptide synthesis. Human E2F1 transactivation domain (residues […]) and a human Rb construct (residues 53-787, delta245-267, delta582-642, S780A) were produced recombinantly in E. coli and purified to homogeneity. Rb was phosphorylated with recombinant Cdk as described.
Rb activity, defined as its ability to bind E2F, was assayed by isothermal titration calorimetry to measure quantitatively E2F binding affinity. About 50 micromolar (μm) Rb was used in the calorimetry cell and E2F was titrated in at a concentration of ˜1 mM. Standard protocols were used to determine Kd. In the experiment with the […] peptide, the peptide was first added to the cell before E2F to saturate Rb.

## DLYCYEQLN [DLYCYEQLN peptide, DLYCYEQLN]
  inhibition of Rb inactivation (effect of phosphorylation on E2F-Rb binding): inhibits the weakening effect of phosphorylation on E2F-Rb binding
